Holding throughout (conditions): CAMHB, incubation time 20 h
Compound in one test: C[C@@H](O)[C@H]1C(=O)N2C(C(=O)O)=C(S[C@@H]3CN[C@H](C(=O)N(C)C)C3)[C@H](C)[C@H]12 [meropenem]
Compound in another test: CC(C)(O/N=C(\C(=O)N[C@@H]1C(=O)N2C(C(=O)[O-])=C(C[N+]3(CCNC(=O)c4ccc(O)c(O)c4Cl)CCCC3)CS[C@H]12)c1csc(N)n1)C(=O)O [cefiderocol]
Compound in another test: CC(C)(O/N=C(\C(=O)N[C@@H]1C(=O)N2C(C(=O)[O-])=C(C[n+]3ccccc3)CS[C@H]12)c1csc(N)n1)C(=O)O [ceftazidime]

On to P. aeruginosa PA14, for which the minimal inhibitory concentration (MIC) was 0.5 µg/mL with meropenem (avibactam 0 µg/mL); 0.25 µg/mL in the test with meropenem (avibactam 8 µg/mL); 1 µg/mL with cefiderocol (avibactam 0 µg/mL); 1 µg/mL with cefiderocol (avibactam 8 µg/mL); 2 µg/mL with ceftazidime (avibactam 0 µg/mL); 2 µg/mL with ceftazidime (avibactam 8 µg/mL).

For B. contaminans 21NG595759, the MIC with meropenem (avibactam 0 µg/mL) is 32 µg/mL; in the test with meropenem (avibactam 8 µg/mL), 8 µg/mL; with cefiderocol (avibactam 0 µg/mL), 1 µg/mL; in the test with cefiderocol (avibactam 8 µg/mL), 2 µg/mL; in the test with ceftazidime (avibactam 0 µg/mL) it was 16 µg/mL; in the test with ceftazidime (avibactam 8 µg/mL) it was 8 µg/mL.

With P. aeruginosa 70, the minimum inhibitory concentration (MIC) turned out to be 0.125 µg/mL in the test with meropenem (avibactam 0 µg/mL); 0.125 µg/mL in the test with meropenem (avibactam 8 µg/mL); 0.5 µg/mL with cefiderocol (avibactam 0 µg/mL); 0.5 µg/mL with cefiderocol (avibactam 8 µg/mL); 0.5 µg/mL with ceftazidime (avibactam 0 µg/mL); 0.5 µg/mL with ceftazidime (avibactam 8 µg/mL).

With B. dolosa AU0645, the MIC was 16 µg/mL with meropenem (avibactam 0 µg/mL); 2 µg/mL with meropenem (avibactam 8 µg/mL); greater than 4 µg/mL with cefiderocol (avibactam 0 µg/mL); greater than 4 µg/mL with cefiderocol (avibactam 8 µg/mL); greater than 128 µg/mL with ceftazidime (avibactam 0 µg/mL); 8 µg/mL in the test with ceftazidime (avibactam 8 µg/mL).

Turning to B. cenocepacia F3071909, the MIC was 16 µg/mL with meropenem (avibactam 0 µg/mL); 2 µg/mL in the test with meropenem (avibactam 8 µg/mL); greater than 4 µg/mL with cefiderocol (avibactam 0 µg/mL); greater than 4 µg/mL in the test with cefiderocol (avibactam 8 µg/mL); 32 µg/mL in the test with ceftazidime (avibactam 0 µg/mL); 32 µg/mL in the test with ceftazidime (avibactam 8 µg/mL).

Consider B. cenocepacia BC7, for which the minimal inhibitory concentration (MIC) in the test with meropenem (avibactam 0 µg/mL) was 16 µg/mL; with meropenem (avibactam 8 µg/mL), 1 µg/mL; in the test with cefiderocol (avibactam 0 µg/mL) it was greater than 4 µg/mL; with cefiderocol (avibactam 8 µg/mL), greater than 4 µg/mL; with ceftazidime (avibactam 0 µg/mL) it was 16 µg/mL; with ceftazidime (avibactam 8 µg/mL), 16 µg/mL.

Take B. gladioli VC14812: the minimum inhibitory concentration (MIC) in the test with meropenem (avibactam 0 µg/mL) came out at 8 µg/mL; in the test with meropenem (avibactam 8 µg/mL), 8 µg/mL; with cefiderocol (avibactam 0 µg/mL) it was 0.5 µg/mL; with cefiderocol (avibactam 8 µg/mL), 0.5 µg/mL; with ceftazidime (avibactam 0 µg/mL) it was 32 µg/mL; with ceftazidime (avibactam 8 µg/mL), 16 µg/mL.

In the case of B. cenocepacia VC14543, the minimum inhibitory concentration (MIC) came to 16 µg/mL with meropenem (avibactam 0 µg/mL); 4 µg/mL with meropenem (avibactam 8 µg/mL); 0.125 µg/mL with cefiderocol (avibactam 0 µg/mL); 0.0625 µg/mL with cefiderocol (avibactam 8 µg/mL); 8 µg/mL with ceftazidime (avibactam 0 µg/mL); 8 µg/mL with ceftazidime (avibactam 8 µg/mL).

For B. gladioli VC19233, the minimum inhibitory concentration (MIC) in the test with meropenem (avibactam 0 µg/mL) was 1 µg/mL; with meropenem (avibactam 8 µg/mL), 1 µg/mL; with cefiderocol (avibactam 0 µg/mL) it was 0.25 µg/mL; with cefiderocol (avibactam 8 µg/mL) it was 0.25 µg/mL; with ceftazidime (avibactam 8 µg/mL) it was 2 µg/mL.

As to B. contaminans LMG23361, the MIC in the test with meropenem (avibactam 0 µg/mL) turned out to be 4 µg/mL; with meropenem (avibactam 8 µg/mL), 0.5 µg/mL; in the test with cefiderocol (avibactam 0 µg/mL), 0.125 µg/mL; in the test with cefiderocol (avibactam 8 µg/mL), 0.125 µg/mL; with ceftazidime (avibactam 0 µg/mL), 2 µg/mL; with ceftazidime (avibactam 8 µg/mL), 2 µg/mL.

As to B. cenocepacia VC14761, the minimal inhibitory concentration (MIC) with meropenem (avibactam 0 µg/mL) is 4 µg/mL; with meropenem (avibactam 8 µg/mL), 1 µg/mL; in the test with cefiderocol (avibactam 0 µg/mL), 0.125 µg/mL; with cefiderocol (avibactam 8 µg/mL), 0.0625 µg/mL; with ceftazidime (avibactam 0 µg/mL), 2 µg/mL; with ceftazidime (avibactam 8 µg/mL), 2 µg/mL.

For the test system B. dolosa CEP021, the minimal inhibitory concentration (MIC) with meropenem (avibactam 0 µg/mL) stood at 2 µg/mL; in the test with meropenem (avibactam 8 µg/mL), 1 µg/mL; with cefiderocol (avibactam 0 µg/mL), 0.5 µg/mL; in the test with cefiderocol (avibactam 8 µg/mL), 0.5 µg/mL; in the test with ceftazidime (avibactam 0 µg/mL), 2 µg/mL; with ceftazidime (avibactam 8 µg/mL) it was 1 µg/mL.

As to B. gladioli 132208, the MIC was found to be 0.5 µg/mL with meropenem (avibactam 0 µg/mL); 0.5 µg/mL with meropenem (avibactam 8 µg/mL); 0.5 µg/mL with cefiderocol (avibactam 0 µg/mL); 0.5 µg/mL with cefiderocol (avibactam 8 µg/mL); 2 µg/mL with ceftazidime (avibactam 0 µg/mL); 2 µg/mL with ceftazidime (avibactam 8 µg/mL).

In the case of B. multivorans 134955, the minimum inhibitory concentration (MIC) with meropenem (avibactam 0 µg/mL) stood at 8 µg/mL; with meropenem (avibactam 8 µg/mL), 1 µg/mL; in the test with cefiderocol (avibactam 0 µg/mL) it was 0.125 µg/mL; with cefiderocol (avibactam 8 µg/mL) it was 0.125 µg/mL; in the test with ceftazidime (avibactam 0 µg/mL), 8 µg/mL; with ceftazidime (avibactam 8 µg/mL), 8 µg/mL.

As to B. multivorans 131077, the minimal inhibitory concentration (MIC) in the test with meropenem (avibactam 0 µg/mL) came out at 4 µg/mL; in the test with meropenem (avibactam 8 µg/mL) it was 1 µg/mL; with cefiderocol (avibactam 0 µg/mL) it was 0.125 µg/mL; with cefiderocol (avibactam 8 µg/mL), 0.125 µg/mL; in the test with ceftazidime (avibactam 0 µg/mL), 8 µg/mL; with ceftazidime (avibactam 8 µg/mL) it was 8 µg/mL.

Consider S. maltophilia 03 T2510, for which the MIC with meropenem (avibactam 0 µg/mL) is greater than 64 µg/mL; with meropenem (avibactam 8 µg/mL), greater than 64 µg/mL; in the test with cefiderocol (avibactam 0 µg/mL), 1 µg/mL; with cefiderocol (avibactam 8 µg/mL), 1 µg/mL; in the test with ceftazidime (avibactam 0 µg/mL) it was 32 µg/mL; in the test with ceftazidime (avibactam 8 µg/mL), 32 µg/mL.

For the origin of these results see the supplement of paper PMC10412643.
